Source: PubChem BioAssay AID2060510 (Molecular Pharmacology Branch, DTP, NCI, 2025)

Test system: 439559-082-T-J2-PDC spheroids viability
Experiment: Anticancer human tumor 439559-082-T-J2-PDC patient-derived colon adenocarcinoma cell line growth inhibition [GQUAD]
Conditions: for IC50: curve of first compound; for viability, T/C: stronger effect = lower value; active = viability on the fitted dose curve at most 10% of control; inactive = the rest
In short: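 Tumor cells were grown as complex spheroids with HUVEC endothelial cells and mesenchymal stem cells as stroma. G-quadruplex stabilizers were combined with targeted agents over half-log dilutions from near the clinical Cmax, or from 10 microM.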

[1] = second compound 0.0316 µM, first compound 0.0316 µM
[2] = second compound 0.0316 µM, first compound 0.1 µM
[3] = second compound 0.0316 µM, first compound 0.316 µM
[4] = second compound 0.0316 µM, first compound 1 µM
[5] = second compound 0.0316 µM, first compound 3.16 µM
[6] = second compound 0.0316 µM, first compound 10 µM
[7] = second compound 0.1 µM, first compound 0.0316 µM
[8] = second compound 0.1 µM, first compound 0.1 µM
[9] = second compound 0.1 µM, first compound 0.316 µM
[10] = second compound 0.1 µM, first compound 1 µM
[11] = second compound 0.1 µM, first compound 3.16 µM
[12] = second compound 0.1 µM, first compound 10 µM
[13] = second compound 0.316 µM, first compound 0.0316 µM
[14] = second compound 0.316 µM, first compound 0.1 µM
[15] = second compound 0.316 µM, first compound 0.316 µM
[16] = second compound 0.316 µM, first compound 1 µM
[17] = second compound 0.316 µM, first compound 3.16 µM
[18] = second compound 0.316 µM, first compound 10 µM
[19] = second compound 1 µM, first compound 0.0316 µM
[20] = second compound 1 µM, first compound 0.1 µM
[21] = second compound 1 µM, first compound 0.316 µM
[22] = second compound 1 µM, first compound 1 µM
[23] = second compound 1 µM, first compound 3.16 µM
[24] = second compound 1 µM, first compound 10 µM
[25] = second compound 3.16 µM, first compound 0.0316 µM
[26] = second compound 3.16 µM, first compound 0.1 µM
[27] = second compound 3.16 µM, first compound 0.316 µM
[28] = second compound 3.16 µM, first compound 1 µM
[29] = second compound 3.16 µM, first compound 3.16 µM
[30] = second compound 3.16 µM, first compound 10 µM
[31] = second compound 10 µM, first compound 0.0316 µM
[32] = second compound 10 µM, first compound 0.1 µM
[33] = second compound 10 µM, first compound 0.316 µM
[34] = second compound 10 µM, first compound 1 µM
[35] = second compound 10 µM, first compound 3.16 µM
[36] = second compound 10 µM, first compound 10 µM
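Note: spheroids exposed to the agents for 7 days before readout.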
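Throughout, for viability, T/C: percent of luminescence signal in DMSO vehicle wells taken as 100% viability.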

C=CC(=O)N1CCN(c2nc(=O)n(-c3c(C)ccnc3C(C)C)c3nc(-c4c(O)cccc4F)c(F)cc23)C(C)C1 (stereo unspecified) + Cc1[nH]c2ccc(F)cc2c1-c1nc2c3cccnc3c3ncccc3c2[nH]1
> 10000 nM: IC50 (second compound 0.0316 µM) | IC50 (second compound 0.1 µM) | IC50 (second compound 0.316 µM) | IC50 (second compound 1 µM) | IC50 (second compound 3.16 µM) | IC50 (second compound 10 µM)
inactive: viability, T/C [1] 106% | viability, T/C [2] 92.6% | viability, T/C [3] 99.3% | viability, T/C [4] 103% | viability, T/C [5] 109% | viability, T/C [6] 101% | viability, T/C [7] 103% | viability, T/C [8] 95.5% | viability, T/C [9] 101% | viability, T/C [10] 95.4% | viability, T/C [11] 112% | viability, T/C [12] 96.5% | viability, T/C [13] 108% | viability, T/C [14] 95.1% | viability, T/C [15] 102% | viability, T/C [16] 103% | viability, T/C [17] 104% | viability, T/C [18] 97.8% | viability, T/C [19] 89.3% | viability, T/C [20] 103% | viability, T/C [21] 93.4% | viability, T/C [22] 93.8% | viability, T/C [23] 100% | viability, T/C [24] 88.7% | viability, T/C [25] 89.1% | viability, T/C [26] 90.5% | viability, T/C [27] 85.6% | viability, T/C [28] 92.4% | viability, T/C [29] 92.1% | viability, T/C [30] 80.2% | viability, T/C [31] 64.6% | viability, T/C [32] 73.1% | viability, T/C [33] 84% | viability, T/C [34] 76% | viability, T/C [35] 79.3% | viability, T/C [36] 80.3%

CC(=O)O[C@H]1C(=O)[C@@]2(C)[C@H]([C@H](OC(=O)c3ccccc3)[C@]3(O)C[C@H](OC(=O)[C@H](O)[C@@H](NC(=O)c4ccccc4)c4ccccc4)C(C)=C1C3(C)C)[C@]1(OC(C)=O)CO[C@@H]1C[C@@H]2O + Cc1[nH]c2ccc(F)cc2c1-c1nc2c3cccnc3c3ncccc3c2[nH]1
385 nM: IC50 (second compound 3.16 µM)
298 nM: IC50 (second compound 10 µM)
343 nM: IC50 (second compound 0.0316 µM)
436 nM: IC50 (second compound 0.316 µM)
402 nM: IC50 (second compound 1 µM)
active: viability, T/C [4] 4.13% | viability, T/C [5] 0.17% | viability, T/C [6] 0.27% | viability, T/C [10] 2.41% | viability, T/C [11] 0.19% | viability, T/C [12] 0.28% | viability, T/C [16] 5.02% | viability, T/C [17] 0.14% | viability, T/C [18] 0.29% | viability, T/C [22] 6.01% | viability, T/C [23] 0.1% | viability, T/C [24] 0.41% | viability, T/C [28] 6.91% | viability, T/C [29] 0.18% | viability, T/C [30] 0.37% | viability, T/C [35] 0.43% | viability, T/C [36] 0.5%
inactive: viability, T/C [1] 103% | viability, T/C [2] 81.4% | viability, T/C [3] 57.7% | viability, T/C [7] 99% | viability, T/C [8] 96.2% | viability, T/C [9] 63.1% | viability, T/C [13] 102% | viability, T/C [14] 87.5% | viability, T/C [15] 67.7% | viability, T/C [19] 90.2% | viability, T/C [20] 82.3% | viability, T/C [21] 61.9% | viability, T/C [25] 61.7% | viability, T/C [26] 76.5% | viability, T/C [27] 58.6% | viability, T/C [31] 88.9% | viability, T/C [32] 63.2% | viability, T/C [33] 55.9% | viability, T/C [34] 9.43%
406 nM: IC50 (second compound 0.1 µM)

CC[C@@]1(O)C(=O)OCc2c1cc1n(c2=O)Cc2cc3c(CN(C)C)c(O)ccc3nc2-1 + Cc1[nH]c2ccc(F)cc2c1-c1nc2c3cccnc3c3ncccc3c2[nH]1
inactive: viability, T/C (second compound 0.0316 µM, first compound 0.000999 µM) 99.4% | viability, T/C (second compound 0.0316 µM, first compound 0.00316 µM) 109% | viability, T/C (second compound 0.0316 µM, first compound 0.00999 µM) 94.5% | viability, T/C [1] 99.7% | viability, T/C (second compound 0.0316 µM, first compound 0.0999 µM) 96.3% | viability, T/C [3] 82.4% | viability, T/C (second compound 0.1 µM, first compound 0.000999 µM) 101% | viability, T/C (second compound 0.1 µM, first compound 0.00316 µM) 102% | viability, T/C (second compound 0.1 µM, first compound 0.00999 µM) 99.5% | viability, T/C [7] 96.2% | viability, T/C (second compound 0.1 µM, first compound 0.0999 µM) 103% | viability, T/C [9] 83% | viability, T/C (second compound 0.316 µM, first compound 0.000999 µM) 98.1% | viability, T/C (second compound 0.316 µM, first compound 0.00316 µM) 92.1% | viability, T/C (second compound 0.316 µM, first compound 0.00999 µM) 89.1% | viability, T/C [13] 99.2% | viability, T/C (second compound 0.316 µM, first compound 0.0999 µM) 90.5% | viability, T/C [15] 83.3% | viability, T/C (second compound 1 µM, first compound 0.000999 µM) 94% | viability, T/C (second compound 1 µM, first compound 0.00316 µM) 101% | viability, T/C (second compound 1 µM, first compound 0.00999 µM) 98.6% | viability, T/C [19] 84.9% | viability, T/C (second compound 1 µM, first compound 0.0999 µM) 93.3% | viability, T/C [21] 83.6% | viability, T/C (second compound 3.16 µM, first compound 0.000999 µM) 81.8% | viability, T/C (second compound 3.16 µM, first compound 0.00316 µM) 81.2% | viability, T/C (second compound 3.16 µM, first compound 0.00999 µM) 88.9% | viability, T/C [25] 78.2% | viability, T/C (second compound 3.16 µM, first compound 0.0999 µM) 86.2% | viability, T/C [27] 73.5% | viability, T/C (second compound 10 µM, first compound 0.000999 µM) 86.4% | viability, T/C (second compound 10 µM, first compound 0.00316 µM) 78.7% | viability, T/C (second compound 10 µM, first compound 0.00999 µM) 75.3% | viability, T/C [31] 76% | viability, T/C (second compound 10 µM, first compound 0.0999 µM) 90.1% | viability, T/C [33] 56.9%
> 316 nM: IC50 (second compound 0.0316 µM) | IC50 (second compound 0.1 µM) | IC50 (second compound 0.316 µM) | IC50 (second compound 1 µM) | IC50 (second compound 3.16 µM) | IC50 (second compound 10 µM)
